Test results as given in PMC3644221 (Toxicology letters, 2013).

Target: CYP1A1 (Homo sapiens, UniProt P04798)
Assay: inhibition of CYP1A1-specific Luciferin-CEE activity
Type: biochemical

Chain of CYP1A1 (P04798 whole entry): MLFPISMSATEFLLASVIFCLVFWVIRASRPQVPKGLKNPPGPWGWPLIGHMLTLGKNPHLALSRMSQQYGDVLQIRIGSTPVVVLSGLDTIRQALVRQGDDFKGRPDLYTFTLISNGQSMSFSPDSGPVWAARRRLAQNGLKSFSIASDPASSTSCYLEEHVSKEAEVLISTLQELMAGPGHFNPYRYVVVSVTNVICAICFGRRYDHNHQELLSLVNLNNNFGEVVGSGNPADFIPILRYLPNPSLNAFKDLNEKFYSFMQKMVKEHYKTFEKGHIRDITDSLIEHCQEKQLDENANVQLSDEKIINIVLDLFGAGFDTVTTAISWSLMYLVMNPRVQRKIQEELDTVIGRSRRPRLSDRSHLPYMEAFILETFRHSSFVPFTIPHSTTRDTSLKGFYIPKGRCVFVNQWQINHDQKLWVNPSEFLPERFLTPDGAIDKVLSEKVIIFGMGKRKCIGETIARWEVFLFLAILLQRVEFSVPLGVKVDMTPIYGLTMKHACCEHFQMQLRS

Row | Structure (SMILES) | IC50 [µM]
1 | Oc1ccc(-c2[o+]c3cc(O)cc(O)c3cc2O)cc1 [pelargonidin] | 33
2 | Oc1cc(O)c2cc(O)c(-c3cc(O)c(O)c(O)c3)[o+]c2c1 [delphinidin] | 77
